This note sets out measurements from patent publication US6689803B2, “Compositions and methods for treating surgical adhesions” (Angiotech Pharmaceuticals, Inc., priority 1996, dated 2004).

Read-outs that look alike come from different tables or passages of the source.

Experiment [1] relates to neutrophils. Kind of experiment: Neutrophil chemiluminescence assay (opsonized CPPD crystals or zymosan). The experiment is classed as cell-based, human. The settings on record: 0.5 to 50 μM. As to the method: (§1) All experiments that studied neutrophil responses to crystals or zymosan in the presence of paclitaxel were performed using plasma opsonized CPPD or zymosan. Opsonization of crystals or zymosan was done with 50% heparinized plasma at a concentration of 75 mg of CPPD or 12 mg of zymosan per ml of 50% plasma Crystals or zymosan were incubated with plasma for 30 minutes at 37° C. and then washed in excess HBSS.
(§2) Neutrophil viability and purity was always greater than 90%.
A stock solution of LY290181 at 100 μM in HBSS was freshly prepared.
All chemiluminescence studies were performed at a cell concentration of 5,000,000 cells/ml in HBSS with CPPD (50 mg/ml). In all experiments 0.5 ml of cells was added to 25 mg of CPPD or 0.5 mg of zymosan in 1.5 ml capped Eppendorf tubes. 10 μl of luminol dissolved in 25% DMSO in HBSS was added to a final concentration of 1 μM and the samples were mixed to initiate neutrophil activation by the crystals or zymosan. Chemiluminescence was monitored using an LKB Luminometer (Model 1250) at 37° C. for 20 minutes with shaking immediately prior to measurements to resuspend the crystals or zymosan. Control tubes contained cells, drug and luminol (crystals absent).

For experiment [2], the system named is neutrophils. Kind of experiment: Superoxide anion generation by neutrophils. In kind it is cell-based, human. As to conditions: 17 μM; CPPD crystals. As to the method:
as §1, §2
Superoxide anion concentrations were measured using the superoxide dismutase inhibitable reduction of cytochrome C assay. Briefly, 25 mg of crystals or 0.5 mg of zymosan was placed in a 1.5 ml capped Eppendorf tube and warmed to 37° C. 0.5 ml of cells at 37° C. were added together with ferricytochrome C (final concentration 1.2 mg/ml) and the cells were activated by shaking the capped tubes. At appropriate times tubes were centrifuged at 10,000 g for 10 seconds and the supernatant collected for assay be measuring the absorbance of 550 nm. Control tubes were set up under the same conditions with the inclusion of superoxide dismutase at 600 units per ml.

For experiment [3], the system named is neutrophils. Kind of experiment: Neutrophil degranulation assay (myeloperoxidase, lysozyme release). The experiment is classed as cell-based, human. As to conditions: 17 μM; CPPD crystals. As for the experimental part:
as §2
One and a half milliliter Eppendorf tubes containing either 25 mg of CPPD or 1 mg of zymosan were preheated to 37° C. 0.5 ml of cells at 37° C. were added followed by vigorous shaking to initiate the reactions. At appropriate times, tubes were centrifuged at 10,000 g for 10 seconds and 0.4 ml of supernatant was stored at −20° C. for later assay.
Lysozyme was measured by the decrease in absorbance at 450 nm of a Micrococcus lysodeikticus suspension. Briefly, Micrococcus lysodeikticus was suspended at 0.1 mg/ml in 65 mM potassium phosphate buffer, pH 6.2 and the absorbance at 450 nm was adjusted to 0.7 units by dilution. The crystal (or zymosan) and cell supernatant (100 μl) was added to 2.5 ml of the Micrococcus suspension and the decrease in absorbance was monitored. Lysozyme standards (chicken egg white) in the 0 to 2000 units/ml range were prepared and a calibration graph of lysozyme concentration against the rate of decrease in the absorbance at 450 nm was obtained.
Myeloperoxidase (MPO) activity was measured by the increase in absorbance at 450 nm that accompanies the oxidation of dianisidine. 7.8 mg of dianisidine was dissolved in 100 ml of 0.1 M citrate buffer, pH 5.5 at […] by sonication. To a 1 ml cuvette, 0.89 ml of the dianisidine solution was added, followed by 50 μl of 1% Triton x 100, 10 μl of a 0.05% hydrogen peroxide in water solution and 50 μl of crystal-cell supernatant. MPO activity was determined from the change in absorbance (450 nm) per minute, Delta Å 450, using the following equation: […]

The next experiment deals with synoviocytes. Briefly: Proliferation assay (MTT). In kind it is cell-based. As to conditions: 24-hour exposure. As to the method:
On day one, 5-10×10^4 synoviocytes were plated per well (96-well plate). Column #1 was kept free of cells (blank). On day 2, the plate was flicked to discard the medium and 200 μl of medium containing various concentrations of drug was added. […] There was no drug added to columns #1 and #2 (blank and untreated control, respectively). The medium containing the drug was discarded and 200 μl of fresh complete medium was added. The cells were then left to grow for an additional 3 to 4 days. On day five, 20 μl of dimethylthiazol diphenyltetrazolium bromide salt (MTT) (5 mg/ml PBS) was added and allowed to incubate for 4 hours at 37° C. The medium was decanted and 200 μl of DMSO was added.
The data were expressed as the % of survival which was obtained by dividing the number of cells remaining after treatment by the number of cells in the untreated control column #2 (the number of cells was obtained from a standard done prior to the assay).

The test system of another experiment is collagenase (MMP-1) mRNA. Briefly: IL-1 induced collagenase mRNA expression in chondrocytes (Northern blot). The experiment is classed as cell-based, calf. As to conditions: pre-incubation 6 hours, IL-1 20 ng/ml 18 hours. As to the method:
Total RNA was isolated, and the MMP-1 mRNA levels were determined by Northern blot analysis. The blots were subsequently stripped and reprobed with ^32P-radiolabeled rat GAPDH cDNA, which was used as a housekeeping gene. The results shown are representative of four independent experiments. Quantitation of collagenase-1 and stromelysin-expression mRNA levels. The MMP-1 and MMP-3 expression levels were normalized with GAPDH.
Primary chondrocyte cultures were freshly isolated from calf cartilage. The cells were plated at 2.5×10^6 per ml in 100×20 mm culture dishes and incubated in Ham's F12 medium containing 5% FBS overnight at 37° C. […] IL-1 (20 ng/ml) was then added to each plate and the plates incubated for an additional 18 hours. Total RNA was isolated by the acidified guanidine isothiocyanate method and subjected to electrophoresis on a denatured gel. Denatured RNA samples (15 μg) were analyzed by gel electrophoresis in a 1% denatured gel, transferred to a nylon membrane and hydridized with the ^32P-labeled collagenase cDNA probe. ^32P-labeled glyceraldehyde phosphate […] (GAPDH) cDNA as an internal standard to ensure roughly equal loading. The exposed films were scanned and quantitatively analyzed with ImageQuant.

The test system of a further experiment is aggrecan mRNA. Kind of experiment: Expression of proteoglycan (aggrecan) in chondrocytes. In kind it is cell-based, calf. As to conditions: all concentrations evaluated (10^−7 M to 10^−4 M). As to the method: Primary chondrocyte cultures were freshly isolated from calf cartilage. The cells were plated at 2.5×10^6 per ml in 100×20 mm culture dishes and incubated in Ham's F12 medium containing 5% FBS overnight at 37° C. The cells were starved in serum-free medium overnight and then treated with anti-microtubule agents at various concentrations (10^−7 M, 10^−6 M, 10^−5 M and 10^−4 M) for 6 hours. […] Total RNA was isolated by the acidified guanidine isothiocyanate method and subjected to electrophoresis on a denatured gel. […] The exposed films were scanned and quantitatively analyzed with ImageQuant.

In experiment [4] the test system is chick chorioallantoic membrane (CAM) vasculature. The settings on record: PCL paste (3 mg).
Another experiment concerns LNCaP cells. Kind of experiment: LNCaP cell growth (crystal violet). As to conditions: inferred from toxicity at 0.001 nM. In kind it is cell-based, human. As to the method:
LNCaP cells were seeded at concentrations of 2×10^3 and 1×10^3 cells/well respectively in 96 well plates. […] After incubation, the cells were fixed with 1% glutaraldehyde solution, and stained for 5 minutes with 0.5% crystal violet. The dye was successively eluted with 100 μl of buffer solution and the absorbance was read on a Titertek Multiskan microplate reader using a wavelength of 492 nm Absorbance. Cell growth was expressed as a percentage relative to control wells in the absence of the compound (set at 100%).

Experiment [5] has as its system restenosis / intimal hyperplasia. Kind of experiment: Rat carotid artery balloon injury model of restenosis, perivascular treatment. In kind it is in vivo. As to conditions: 10% camptothecin-loaded EVA film, 14 days, two animals. As to the method: WISTAR rats weighing 250 to 300 g were anesthetized by the intramuscular injection of Innovar (0.33 ml/kg). Once sedated they were then placed under Halothane anesthesia After general anesthesia was established, fur over the neck region was shaved, the skin clamped and swabbed with betadine. A vertical incision was made over the left carotid artery and the external carotid artery exposed. Two ligatures were placed around the external carotid artery and a transverse arteriotomy was made. […] The endothelium was denuded by passing the inflated balloon up and down the carotid artery three times. The catheter was then removed and the ligature tied off on the left external carotid artery. […] The wound was then closed.

For a further experiment, the system named is NF-κB. Kind of experiment: NF-κB activity (cell-based) reporter assay in NIH-3T3. Also noted: species or system murine. As to conditions: 6-hour and 24-hour treatments. As for the experimental part: IL-1 and TNF were both identified as being proinflammatory cytokines that activate the transcription of genes driven by a transcription factor named NF-κB also involved in inflammatory processes. The inflammatory effect of IL-1 and TNF can therefore be indirectly assessed by means of a reporter gene assay (NF-κB) responding to IL-1 and TNF stimulation.
On day one, 5×10^4 NIH-3T3 (murine fibroblast), stably transfected with a NF-κB reporter construct (Luciferase, Promega Corp.), were plated per well (24-well plate). Once confluent (on day 3-4), cells were starved by replacing the complete medium with 1 ml of serum-free medium. Following a 24-hour starvation, cells were treated with various concentrations of anti-microtubule agents 6 hours prior to the addition of IL-1 (20 ng/ml) and TNF (20 ng/ml). Cells were exposed to IL-1 and TNF for 1 hour and 16 hours and NF-κB activity measured 24 hours later. On day five, the medium was discarded and the cells were rinsed once with PBS. Cells were then extracted for 15 minutes with 250 μl of lysis buffer (Promega Corp., Wisconsin). NF-κB transcriptional activity was assessed by adding 25 μl of luciferase substrate to a tube containing 2.5 μl of cell extract. The tube was immediately inserted in a luminometer (Turner Designs) and light emission measured for 10 seconds. The luciferase data were then normalized for protein concentration.
In general terms: In a reporter assay the amount or activity of a reporter protein is the signal.

By IC50 is commonly meant the midpoint of a concentration-inhibition curve. Read a low IC50 as greater potency in that assay. Consider `N#CC1=C(N)Oc2c(ccc3ccccc23)C1c1cccnc1` (centres unmarked) [LY290181, 2-amino-4-(3-pyridyl)-4H-naphtho(1,2-b)pyran-3-cardonitrile], for which, in the experiment on neutrophils [1], the “inhibition of plasma opsonized zymosan-induced neutrophil chemiluminescence” value is reported as “strong inhibition”. The superoxide anion production result in the experiment with neutrophils [2] is “decrease in the amount of superoxide generated”. Besides, in the experiment with neutrophils [3], the lysozyme release result is “decreased both lysozyme and myeloperoxidase release”; the myeloperoxidase release entry was “decreased both lysozyme and myeloperoxidase release”. For the same compound, the IC50 with synoviocytes was under 5 nM. In addition, the “prevented IL-1-induced collagenase expression at concentrations as low as” value in the experiment on collagenase (MMP-1) mRNA turned out to be 100 nM. The expression of aggrecan entry in the experiment on aggrecan mRNA is recorded as “did not affect the expression of aggrecan”. Besides, the Inhibition/n result in [4] (1%) was “did not induce an anti-angiogenesis response”. For the same compound, in experiment [4] (5%), the Inhibition/n result is “⅓”.
As for `CC[C@@]1(O)C(=O)OCc2c1cc1n(c2=O)Cc2cc3ccccc3nc2-1` [camptothecin], the EC50 entry in the experiment with LNCaP cells is reported as “femtomolar concentration range”. Moreover, the intimal hyperplasia entry in [5] is “completely inhibited intimal hyperplasia”. The Inhibition/n entry is listed as “¾” in experiment [4] (0.25%), “⅔” in experiment [4] (1%) and “⅘” in experiment [4] (5%).
Take `Nc1ncnc2c1ccn2[C@@H]1O[C@H](CO)[C@@H](O)[C@H]1O` [tubercidin, 7-deazaadenosine]: in the experiment with synoviocytes, the IC50 was about 45 nM. For the same compound, the “prevented IL-1-induced collagenase expression at concentrations as low as” value in the experiment with collagenase (MMP-1) mRNA came to 100 nM. The expression of aggrecan entry with aggrecan mRNA was “did not affect the expression of aggrecan”. The “inhibitory effect on IL-1- and TNF-induced NF-κB activity” value with NF-κB is recorded as “around 10 μM”. Moreover, the Inhibition/n result in experiment [4] (1%) is “⅓”; in experiment [4] (5%), “⅔”.
